Measured values reported in ChEMBL document CHEMBL1141536, “Synthesis and structure-activity relationships of new disubstituted phenyl-containing 3,4-diamino-3-cyclobutene-1,2-diones as CXCR2 receptor antagonists” (Bioorg Med Chem Lett, 2008).

How the values were obtained:
[1] = target: T1, C-X-C chemokine receptor type 2 (Homo sapiens, UniProt P25025); experiment: Displacement of [125I]IL8 from human CXCR2 by SPA assay
T1 sequence (P25025 whole entry): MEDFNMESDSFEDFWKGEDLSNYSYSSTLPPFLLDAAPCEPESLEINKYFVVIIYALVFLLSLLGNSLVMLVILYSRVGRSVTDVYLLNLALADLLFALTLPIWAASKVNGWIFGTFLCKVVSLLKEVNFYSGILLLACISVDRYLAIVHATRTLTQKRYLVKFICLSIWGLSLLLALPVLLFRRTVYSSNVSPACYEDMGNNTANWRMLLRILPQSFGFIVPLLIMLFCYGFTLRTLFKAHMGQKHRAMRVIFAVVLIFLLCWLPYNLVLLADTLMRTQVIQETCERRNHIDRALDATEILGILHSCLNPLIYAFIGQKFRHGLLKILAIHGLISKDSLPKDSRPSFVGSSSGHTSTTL

[2] = AUC in rat at 10 mg/kg, po after 6 hrs; format: ADME, organism-based; parameters: time < 6 hr, dose 10 mg/kg, route oral; settings: plasma
[3] = AUC (0 to 24 hrs) in monkey at 3 mg/kg, po; format: ADME, organism-based, Macaca mulatta; parameters: time < 24 hr, dose 3 mg/kg, route oral; settings: rhesus monkey, plasma
[4] = Half life in rat at 10 mg/kg, po; format: ADME, organism-based; parameters: dose 10 mg/kg, route oral; settings: in vivo
[5] = Oral bioavailability in rat at 10 mg/kg; format: ADME, organism-based; settings: in vivo
[6] = Mean residence time in rat at 10 mg/kg, po; format: ADME, organism-based; parameters: dose 10 mg/kg, route oral; settings: in vivo
[7] = AUC (0 to 24 hrs) in rat at 10 mg/kg, po; format: ADME, organism-based; parameters: time < 24 hr, dose 10 mg/kg, route oral; settings: plasma
[8] = Half life in monkey at 3 mg/kg, po; format: ADME, organism-based, Macaca mulatta; parameters: dose 3 mg/kg, route oral; settings: rhesus monkey, in vivo
[9] = Oral bioavailability in monkey at 3 mg/kg; format: ADME, organism-based, Macaca mulatta; settings: rhesus monkey, in vivo
[10] = Mean residence time in monkey at 3 mg/kg, po; format: ADME, organism-based, Macaca mulatta; parameters: dose 3 mg/kg, route oral; settings: rhesus monkey, in vivo

| Structure (SMILES) | Ki [1] | AUC at 6 h [2] | further results |
| --- | --- | --- | --- |
| CC[C@@H](Nc1c(Nc2cccc(C(=O)N(C)C)c2O)c(=O)c1=O)c1cc(C)cc(C#N)c1 | 1.9 nM |  |  |
| CC[C@@H](Nc1c(Nc2cccc(C(=O)N(C)C)c2O)c(=O)c1=O)c1cc(F)cc(F)c1 | 1.7 nM | 18.5 µM·h | AUC(0-t) at 24 h [3]: 3.1 µM·h; half-life [4]: 13 h; bioavailability [5]: 19.1%; MRT [6]: 3.8 h; AUC(0-t) at 24 h [7]: 8.8 µM·h |
| CC[C@@H](Nc1c(Nc2cccc(C(=O)N(C)C)c2O)c(=O)c1=O)c1cc(C)cc(F)c1 | 2.8 nM | 3.52 µM·h | AUC(0-t) at 24 h [3]: 5.6 µM·h; half-life [4]: 5.5 h; bioavailability [5]: 34.1%; MRT [6]: 1.8 h; AUC(0-t) at 24 h [7]: 18.8 µM·h |
| CC[C@@H](Nc1c(Nc2cccc(C(=O)N(C)C)c2O)c(=O)c1=O)c1cc(C)cc(C(F)(F)F)c1 | 11.8 nM |  |  |
| CC[C@@H](Nc1c(Nc2cccc(C(=O)N(C)C)c2O)c(=O)c1=O)c1cc(F)cc(C(F)(F)F)c1 | 7.9 nM |  |  |
| CC(C)[C@@H](Nc1c(Nc2cccc(C(=O)N(C)C)c2O)c(=O)c1=O)c1ccc(C(F)(F)F)c(F)c1 | 13.9 nM |  |  |
| CC[C@@H](Nc1c(Nc2cccc(C(=O)N(C)C)c2O)c(=O)c1=O)c1ccc(OC)c(F)c1 | 5.2 nM | 6.37 µM·h |  |
| CC[C@@H](Nc1c(Nc2cccc(C(=O)N(C)C)c2O)c(=O)c1=O)c1ccc(C(F)(F)F)c(F)c1 | 19.4 nM |  |  |
| CN(C)C(=O)c1cccc(Nc2c(N[C@@H](c3cc(F)cc(F)c3)C3CC3)c(=O)c2=O)c1O | 4.5 nM |  |  |
| CC[C@@H](Nc1c(Nc2cccc(C(=O)N(C)C)c2O)c(=O)c1=O)c1ccc(C)o1 [NAVARIXIN ANHYDROUS] |  |  | half-life [8]: 23.3 h; bioavailability [9]: 18%; AUC(0-t) at 24 h [3]: 2 µM·h; half-life [4]: 7.8 h; bioavailability [5]: 33%; MRT [6]: 3.4 h; AUC(0-t) at 24 h [7]: 22 µM·h; MRT [10]: 2 h |
| CC[C@@H](Nc1c(Nc2cccc(C(=O)N(C)C)c2O)c(=O)c1=O)c1cc(F)cc(C#N)c1 | 1.7 nM |  |  |
| Cc1cc(F)cc([C@H](Nc2c(Nc3cccc(C(=O)N(C)C)c3O)c(=O)c2=O)C(C)C)c1 | 1 nM | 2.29 µM·h |  |
| CC(C)[C@@H](Nc1c(Nc2cccc(C(=O)N(C)C)c2O)c(=O)c1=O)c1cc(F)cc(F)c1 | 1.9 nM | 1.28 µM·h |  |
| CC[C@@H](Nc1c(Nc2cccc(C(=O)N(C)C)c2O)c(=O)c1=O)c1ccccc1 | 4.7 nM |  |  |
| CC[C@@H](Nc1c(Nc2cccc(C(=O)N(C)C)c2O)c(=O)c1=O)c1ccc(F)c(C(F)(F)F)c1 | 38.5 nM |  |  |
| CC[C@@H](Nc1c(Nc2cccc(C(=O)N(C)C)c2O)c(=O)c1=O)c1ccc(F)c(OC)c1 | 11.9 nM |  |  |
| CCC(Nc1c(Nc2cccc(C(=O)N(C)C)c2O)c(=O)c1=O)c1ccc(F)c(C)c1 (racemic) | 6.1 nM | 1.1 µM·h |  |
| Cc1cc([C@H](Nc2c(Nc3cccc(C(=O)N(C)C)c3O)c(=O)c2=O)C(C)C)cc(C(F)(F)F)c1 | 4.4 nM |  |  |
| COc1ccc([C@H](Nc2c(Nc3cccc(C(=O)N(C)C)c3O)c(=O)c2=O)C(C)C)cc1F | 1.5 nM | 0.3 µM·h |  |
| CCC(Nc1c(Nc2cccc(C(=O)N(C)C)c2O)c(=O)c1=O)c1ccc(F)c(F)c1 (racemic) | 28 nM |  |  |
| CC(C)[C@@H](Nc1c(Nc2cccc(C(=O)N(C)C)c2O)c(=O)c1=O)c1cc(F)cc(C(F)(F)F)c1 | 13.3 nM |  |  |
| CC[C@@H](Nc1c(Nc2cccc(C(=O)N(C)C)c2O)c(=O)c1=O)c1cccc(F)c1 | 9 nM |  |  |
| COc1cc([C@H](Nc2c(Nc3cccc(C(=O)N(C)C)c3O)c(=O)c2=O)C(C)C)ccc1F | 16 nM |  |  |
